Test results: US20040137574A1, “Novel polypeptide” (Pfizer Inc, priority 2000, published 2004)

Assays:
PFI-019 = target: T1, PFI-019 (Homo sapiens, UniProt Q96P68); assay: FLIPR cell-based assay for agonist activation of PFI-019 (calcium fluorescence, Fluo3); conditions: PFI-019-transfected HEK 293 cells expressing mouse Gα15, fluorescence intensity versus time
T1 construct: amplify the PFI-019 coding region from human genomic DNA; N-terminal polyhistidine/Xpress leader of vector pcDNA4/HisMax-TOPO (inferred from the vector name); expressed in transfected cells; host or cells: HEK293 cells expressing the mouse Galpha15 gene, transiently transfected
Experimental: Fluorescence Imaging Plate Reader (FLIPR®) technology was employed as a means to detect activation of PFI-019 by agonists in a cell-based assay.
(§1) 5×10^6 Human Embryonic Kidney (HEK) 293 cells expressing the mouse Gα15 gene (from here on called '293 cells'), were transiently transfected with 7.5 μg of PFI-019 (contained within the pcDNA4HIS-max-TOPO (Invitrogen) plasmid) vector, or vector alone, using Lipofectamine Plus® reagent (Gibco BRL) as per the manufacturer's protocol. The plasmid pcDNA4HIS-max-TOPO was used as it contains elements that up-regulate the level of gene transcription over standard pcDNA3.1 vectors. 24 hrs post-transfection, the cells were detached from the flask using Trypsin/EDTA solution (LTI) and seeded into a black sided, Poly-D-lysine-treated, 96-well plate (Becton Dickinson) at 5×10^4 cells/well density. The plates were left overnight to allow the cells to adhere to the bottom of the wells. […] The FLIPR® processing involved reading the fluorescence for all samples for 2 minutes; during this time the fluorescence baseline was determined for the first 10 seconds. The desired amount of compound was then automatically transferred to the wells, and the fluorescence was continuously monitored for the remainder of the time. […]

[1] = system: Vector-only transfected 293 cells; assay: FLIPR cell-based assay, vector-only (mock) transfected control cells; design: species or system human; conditions: vector-only transfected HEK 293 cells expressing mouse Gα15
Experimental: as §1

Row | stimulation of PFI-019 (fluorescence response) (PFI-019) | SMILES | response of vector-only transfected 293 cells (fluorescence) [1]
1 | stimulation of PFI-019 | Nc1nc(Cl)nc2c1ncn2[C@@H]1O[C@H](COP(=O)([O-])OP(=O)([O-])OP(=O)([O-])[O-])[C@@H](O)[C@H]1O.[Na+].[Na+].[Na+].[Na+] [2-chloro-ATP, 2-chloroadenosine triphosphate tetrasodium] | no measurable response
2 | stimulation of PFI-019 | O=c1ccn([C@@H]2O[C@H](COP(=O)(O)OP(=O)(O)OP(=O)(O)O)[C@@H](O)[C@H]2O)c(=O)[nH]1 [UTP, Uridine triphosphate] | no measurable response
